Results as given in patent US20140051661A1, “NOVEL LIPOGENIC INHIBITORS AND USES THEREOF” (The Texas A&M University System, priority 2011, published 2014).

Columns and labels:
[1] = system: fatty acid synthase (FAS) mRNA; assay: FAS mRNA levels in HepG2 cells by quantitative RT-PCR; type: cell-based, human; conditions: 30 μM (0.03 mM) compound, 6 hours, qRT-PCR
Procedure: (§1) HepG2, HEK293 cells, and MEFs were cultured at 37° C. and 5% CO2 in Dulbecco's modified Eagle's medium (DMEM; Sigma), supplemented with […] of penicillin-streptomycin (GIBCO-BRL), 10% (or otherwise indicated) fetal bovine serum (Hyclone), and 20 mM Glutamine.
(§2) Total RNA was extracted from cells with Trizol (Invitrogen, Carlsbad, Calif.) and quantified with an Agilent 2100 Bioanalyzer (Agilent Technologies, Santa Clara, Calif.). For mRNA quantification, 2 ug of RNA was converted to cDNA with a High Capacity cDNA Reverse Transcription kit (Applied Biosystems, Foster City, Calif.), and transcript levels of relevant genes were determined by real-time, quantitative PCR with an ABI 7300 Real Time PCR machine according to the manufacturers instructions.
(§3) HepG2 and FAO cells as well as primary rat hepatocytes were cultured at 37° C. and 5% CO2 in Dulbecco's modified Eagle's medium (DMEM; Sigma, St. Louis, Mo.), supplemented with […] of penicillin-streptomycin (P/S, GIBCO-BRL), 10% fetal bovine serum (FBS, Hyclone) and 20 mM glutamine. Primary rat hepatocytes were isolated using a method as described previously (20), and plated onto collagen-coated 6-cm dishes (3×10^6 cell/dish) in DMEM containing 10% FBS; […] P/S, 20 mM glutamine, 100 nM insulin and 1 μM dexamethasone. After 4 hours of culture, non-adherent cells were washed away with 1×PBS. The remaining hepatocytes were cultured or treated in regular DMEM medium.
(§4) Total RNA was extracted from cells with Trizol (Invitrogen, Life Technologies, Carlsbad, Calif.) and quantified with an Agilent 2100 Bioanalyzer. For mRNA quantification, 2 μg of RNA was converted to cDNA with a High Capacity cDNA Reverse. Transcription kit (Applied Biosystems, Foster City, Calif.), and transcript levels of relevant genes were determined by real-time, quantitative PCR with an ABI 7300 Real Time PCR machine according to the manufacturer's instructions. (PCR primer information is available upon request)

[2] = system: HMG-CoA reductase (HMGCR) mRNA; assay: HMG-CoA reductase mRNA levels in HepG2 cells by quantitative RT-PCR; type: cell-based, human; conditions: 6 hours; for HMG-CoA reductase mRNA levels: 0.03 mM compound
Procedure: as §1, §2, §3, §4

HepG2 cells [3] = assay: Palmitate synthesis in HepG2 cells (deuterated water GC/MS); type: cell-based, human; conditions: HepG2 cells as printed
Procedure: (§5) Quantitative measurement of fatty acids and cholesterol synthesis Fatty acids and cholesterol synthesis rate was determined using the deuterated water—GC/MS method as described previously.

HepG2 cells [4] = assay: Cytotoxicity in HepG2 cells; type: cell-based, human; conditions: data not shown
HMGCR mRNA = assay: Hepatic HMGCR mRNA in HFD-fed mice by qRT-PCR; type: in vivo, C57BL/6J mice; conditions: 0.3 mg/g body weight, 1 week, osmotic pumps
Procedure: (§6) Male C57BI/6J mice were purchased from The Jackson Laboratory at 8 weeks of age and were rendered insulin resistant by feeding an HFD (60% kcal from fat; D12492, Research Diets) for 4 weeks. Then the treatment with BF-102 or BF175 was performed for 1 week (osmotic pumps) or several weeks (in HFD).
as §4

293 cells = assay: Cytotoxicity in 293 cells; type: cell-based; conditions: 0.1 mM BF-102; data not shown
FAO cells [5] = assay: Cholesterol synthesis rate in FAO cells (deuterium enrichment, GC/MS); type: cell-based, rat; conditions: 20 μM, 12 hours, 100 nM insulin
Procedure: as §3, with “medium. Fatty acids and cholesterol synthesis rate was, determined using the deuterium enrichment method followed by GC/MS analysis. Briefly, cells were cultured in regular DMEM medium containing 10% 2H2O for 18 hours. Fatty acids and cholesterol were purified by extraction with organic solvents chloroform/methanol and quantitatively measured by GC/MS. The synthesis rates were presented as the percentage of ^2H-containing palmitate or cholesterol in total amount of palmitate or cholesterol.” for “medium.”

FAS mRNA = assay: Hepatic FAS mRNA in HFD-fed mice by qRT-PCR; type: in vivo, C57BL/6J mice; conditions: 0.3 mg/g body weight, 1 week, osmotic pumps
Procedure: as §6, §4

[6] = Toxic responses in mice under standard chow, osmotic pumps; type: in vivo; conditions: one week, total of 0.6 mg/g body weight by osmotic pumps
FAO cells [7] = assay: Palmitate synthesis rate in FAO cells (deuterium enrichment, GC/MS); type: cell-based, rat; conditions: 20 μM, 12 hours, 100 nM insulin
Procedure: as §3, with “medium. Fatty acids and cholesterol synthesis rate was, determined using the deuterium enrichment method followed by GC/MS analysis. Briefly, cells were cultured in regular DMEM medium containing 10% 2H2O for 18 hours. Fatty acids and cholesterol were purified by extraction with organic solvents chloroform/methanol and quantitatively measured by GC/MS. The synthesis rates were presented as the percentage of ^2H-containing palmitate or cholesterol in total amount of palmitate or cholesterol.” for “medium.”

HepG2 cells [8] = assay: Cholesterol synthesis in HepG2 cells (deuterated water GC/MS); type: cell-based, human; conditions: 20 μM, 12 hours
Procedure: as §5

SMILES	FAS mRNA levels [1]	HMG-CoA reductase mRNA levels [2]	FAS mRNA levels ([1]; listed as BF-02)	palmitate synthesis (HepG2 cells [3])	cytotoxicity in HepG2 cells (HepG2 cells [4]; 0.1 mM BF-102)	toxicity to HepG2 cells (HepG2 cells [4]; at the doses used)	mRNA levels of HMGCR, dose dependence ([2]; indicated concentrations)	reduction of hepatic mRNA levels of HMGCR vs DMSO controls (HMGCR mRNA)	cytotoxicity in 293 cells (293 cells)	synthesis rate of cholesterol (FAO cells [5])	hepatic FAS mRNA levels (FAS mRNA)	toxic responses [6]	synthesis rate of palmitate (FAO cells [7])	cholesterol synthesis (HepG2 cells [8])
CC1(C)OB(c2ccc(C=Cc3cc(Cl)cc(Cl)c3)cc2)OC1(C)C [MD131, 3,5-dichloro-4/-(4,4,5,5-Tetramethyl-1,3,2-dioxaborolan-2-yl)stilbene]	strong inhibition	strong inhibition												
CC1(C)OB(c2ccc(C=Cc3ccc(O)cc3)cc2)OC1(C)C [BF-102, 4-{2-[4-(4,4,5,5-Tetramethyl-[1,3,2]dioxaborolan-2-yl)-phenyl]-vinyl}-phenol]	strong inhibition	strong inhibition	significant decrease	inhibits	no significant cytotoxicity	not toxic	dose-dependently decrease	~5 fold	no significant cytotoxicity	dramatically decrease	significantly down regulated	no apparent toxic responses	significantly decrease	inhibits
